Data taken from US4250259A, “Microbiological production of ketones from C3 -C6 secondary alcohols” (priority 1979, dated 1981).
Read-outs that look alike come from different tables or passages of the source.

Assays:
[1] = test system: purified secondary alcohol dehydrogenase; test: substrate specificity, electron acceptor and stoichiometry of purified yeast SADH; settings: for oxidation by the purified yeast secondary alcohol dehydrogenase: examined spectrophotometrically
[2] = test system: cell suspensions of C1-utilizers; test: studies on production of 2-butanone from 2-butanol by cell suspensions of the strains tested; assay type: cell-based; settings: for inhibition of production of 2-butanone from 2-butanol by cell suspensions: strains tested
Description: The following summarizes tests conducted on the optimal conditions for the production of methyl ketones from C3 -C6 sec. alcohols.
The substrate specificity for the oxidation of C3 -C6 secondary alcohols by the strains of C1 -utilizers was studied.

[3] = test system: purified secondary alcohol dehydrogenase (SADH); test: inhibition of purified SADH by metal-chelating agents, thioreagents, metals; assay type: biochemical, Pseudomonas sp. ATCC 21439
Method: Secondary alcohol dehydrogenase (SADH) from an obligate methanol utilizer, Pseudomonas sp. ATCC 21439 was purified as follows. […] 0.05 M sodium phosphate buffer, pH 7.0 with 0.5 mM dithiothretol (buffer A) and were disrupted sonically (5×1 min.). The crude extract was separated by centrifugation. The crude extract was heat-treated at 50° C. in a water bath for 10 minutes. The resulting precipitate was removed by centrifugation. To the supernatant solution, 25 ml of protamine sulfate solution (2% solution in 0.1 M Tris base) was added dropwise with continuous stirring. After standing for 30 minutes, the extract was centrifuged. The supernatant solution was fractionated with solid ammonium sulfate. […] This DEAE-cellulose eluate was concentrated by ammonium sulfate fractionation. Material precipitating between 30 and 50% ammonium sulfate saturation was collected by centrifugation and dialyzed overnight against A. This fraction was further washed and filtered through an Amicon unit with XM 50 membrane. The concentrated fraction (6 ml) inside the Amicon unit was applied to an Affi-Gel Blue column (0.8 cm×18 cm) which had been equilibrated with buffer A for affinity chromatography. The column was washed overnight with buffer A (0.18 ml./min.) and then was eluted with buffer A containing 5 mM NAD. Each 1 ml. fraction was collected.
The purified secondary alcohol dehydrogenase enzyme (SADH) may be used directly for converting C3 -C6 secondary alcohols to the corresponding methyl ketones by the procedures described above; however, a source of NAD^+ must be added to the reaction medium. One can determine the NAD-linked secondary alcohol dehydrogenase activity with a fluorescence spectrophotometer (Perkin Elmer, Model MPF 44A) by following the formation of reduced NAD (Ex 340 nm, Em 460 nm). The assay system (3 ml.) will typically contain: sodium phosphate buffer pH 7.0, 150 μmol; NAD 1.0 μmol; a given amount of enzyme preparation; and 20 μmol secondary alcohol. The reaction is started by the addition of secondary alcohol. One unit of SADH enzyme activity represents the reduction of one nmole NAD per minute.
The effect of metal-chelating agents and thioreagents on the activity of the purified SADH enzyme were studied. […] The possibility of ethanol or n-propanol as an inhibitor was studied.

[4] = test system: cell-free particulate fractions of methane-grown methylotrophs; test: inhibitors and electron donors of n-alkane conversion to sec. alcohols by cell-free particulate fractions; assay type: biochemical
Description: The conditions for preparing the cell suspensions or the cell-free particulate fractions from methane-grown methylotroph microorganisms is the same as described above.

[5] = test system: Methylosinus trichosporium OB3b NRRL B-11,196; test: conversion of n-alkanes to oxidation products by cell suspensions (Table XVIII); assay type: cell-based; settings: methane-grown cell suspension, pH 7.0
Method: (§1) ^(a) Cell-suspensions of methanegrown methylotroph microorganisms
(§2) indicated in 0.15 M phosphate buffer, pH 7.0 incubated in the alkanes as
(§3) indicated at 3° C. The oxidation products were determined by g.l.c

[6] = test system: Methylococcus capsulatus CRL M1 NRRL B-11,219; test: as above; assay type: cell-based; settings: methane-grown cell suspension, pH 7.0
Method: as §1, §2, §3

cell-free SADH system = test: cofactor requirement of the cell-free SADH systems; assay type: biochemical; settings: cell-free systems tested
Method: To prepare the cell-free secondary alcohol dehydrogenase (SADH) system, the washed cells were disrupted with a Wave Energy Ultrasonic Oscillator, Model W201 (Wave Energy System, Inc., Newtown, Pa.) and centrifuged at 20,000×g. for 30 minutes. […] The enzyme activity was measured with a fluorescence spectrophotometer (Perkin Elmer, Model MPF 44A) by following the formation of reduced NAD (EX 340 nm, Em 460 nm). The formation of reduced NAD was also followed with an absorption spectrophotometer at 340 nm. The assay system (3 ml.) contained: potassium phosphate buffer pH 7.0; 150 μmol.; NAD 1 μmol.; a given amount of enzyme preparation; and secondary alcohol 10 μmol. The reaction was started by the addition of substrate. One unit of enzyme activity represents the reduction of one μmole NAD per minute. Protein concentrations were determined by the Lowry method (J. Biol. Chem., 193: 255-275 (1951)).

[7] = test system: purified secondary alcohol dehydrogenase (SADH); test: substrate specificity and Michaelis constants of purified SADH; assay type: biochemical, Pseudomonas sp. ATCC 21439
[8] = each inhibitor at a final concentration of 1 mM, measured spectrofluorometrically

## CC(O)CO (stereo not drawn) [1,2-propandiol]
[1]
  oxidation by the purified yeast secondary alcohol dehydrogenase: not oxidized

## CCCCCC(C)O (stereo not drawn) [2-heptanol]
[1]
  oxidation by the purified yeast secondary alcohol dehydrogenase: not oxidized
[2]; cell suspensions
  rate of oxidation of secondary alcohols by strains of C1-utilizers: much slower rate

## CCCCCCC(C)O (stereo not drawn) [2-octanol]
[1]
  oxidation by the purified yeast secondary alcohol dehydrogenase: not oxidized

## O=C(O)c1cc(SSc2ccc([N+](=O)[O-])c(C(=O)O)c2)ccc1[N+](=O)[O-] [5,5'-dithiobis(2-nitrobenzoic acid)]
[3]
  inhibition of SADH activity: inhibited
[3]; [8]
  % inhibition of SADH activity: 100%

## Oc1cccc2cccnc12 [8-hydroxyquinoline]
[4]
  inhibition of conversion of n-alkanes to sec. alcohols (words): inhibited

## [Co+2] [Co^++]
[3]; [8]
  % inhibition of SADH activity: 0%

## O=C(O)CN(CCN(CC(=O)O)CC(=O)O)CC(=O)O [EDTA]
[3]
  % inhibition of SADH activity: 63%

## CC [Ethane]
[5]
  Conversion Rate, product Ethanol: 1.3 μmoles/hr./mg./protein
[6]
  Conversion Rate, product Ethanol: 2.0 μmoles/hr./mg./protein

## Cc1cc2nc3c(=O)[nH]c(=O)nc-3n(C[C@H](O)[C@H](O)[C@H](O)COP(=O)(O)OP(=O)(O)OC[C@H]3O[C@@H](n4cnc5c(N)ncnc54)[C@H](O)[C@@H]3O)c2cc1C [FAD, flavin adenine dinucleotide, reference compound]
[1]
  ability to act as electron acceptor/carrier for the purified enzyme: could not act as electron carrier
cell-free SADH system
  effectiveness as cofactor for oxidation of 2-butanol / C3-C6 secondary alcohols: not effective

## C [Methane]
[5]; […] phosphate buffer
  Conversion Rate, product Methanol: 1.5 μmoles/hr./mg./protein
[6]; […] phosphate buffer
  Conversion Rate, product Methanol: 2.5 μmoles/hr./mg./protein

## [Mg+2] [Mg^++]
[3]; [8]
  % inhibition of SADH activity: 0%

## [Mn+2] [Mn^++]
[3]; [8]
  % inhibition of SADH activity: 0%

## CCN1C(=O)C=CC1=O [N-ethylmalemide, N-ethylmaleimide]
[3]
  inhibition of SADH activity: not inhibited
[3]; [8]
  % inhibition of SADH activity: 6%

## NC(=O)C1=CN([C@@H]2O[C@H](COP(=O)(O)OP(=O)(O)OC[C@H]3O[C@@H](n4cnc5c(N)ncnc54)[C@H](OP(=O)(O)O)[C@@H]3O)[C@@H](O)[C@H]2O)C=CC1 [NAD(P)H]
cell-free SADH system
  effectiveness as cofactor for oxidation of 2-butanol / C3-C6 secondary alcohols: not effective

## NC(=O)C1=CN([C@@H]2O[C@H](COP(=O)(O)OP(=O)(O)OC[C@H]3O[C@@H](n4cnc5c(N)ncnc54)[C@H](O)[C@@H]3O)[C@@H](O)[C@H]2O)C=CC1 [NADH, reduced nicotinamide adenine dinucleotide]
[4]
  use as electron donor for hydroxylation of n-alkanes: requires

## NC(=O)c1ccc[n+]([C@@H]2O[C@H](COP(=O)(O)OP(=O)(O)OC[C@H]3O[C@@H](n4cnc5c(N)ncnc54)[C@H](OP(=O)(O)O)[C@@H]3O)[C@@H](O)[C@H]2O)c1 [NADP, reference compound]
[1]
  ability to act as electron acceptor/carrier for the purified enzyme: could not act as electron carrier
cell-free SADH system
  effectiveness as cofactor for oxidation of 2-butanol / C3-C6 secondary alcohols: not effective

## NC(=O)C1=CN([C@@H]2O[C@H](COP(=O)(O)OP(=O)(O)OC[C@H]3O[C@@H](n4cnc5c(N)ncnc54)[C@H](OP(=O)(O)O)[C@@H]3O)[C@@H](O)[C@H]2O)C=CC1 [NADPH, reduced nicotinamide adenine dinucleotide phosphate]
[4]
  use as electron donor for hydroxylation of n-alkanes: could also be utilized as an electron donor

## [N-]=[N+]=[N-] [Sodium azide]
[3]; [8]
  % inhibition of SADH activity: 10%

## NC(N)=S [Thiourea]
[2]
  inhibition of production of 2-butanone from 2-butanol by cell suspensions: not inhibited
[4]
  inhibition of conversion of n-alkanes to sec. alcohols (words): inhibited
[3]
  inhibition of SADH activity: not inhibited
[3]; [8]
  % inhibition of SADH activity: 0%

## [Zn+2] [Zn^++]
[3]; addition of exogenous zinc
  stimulation of SADH activity: did not stimulate
[3]; [8]
  % inhibition of SADH activity: 0%

## CC=O [acetaldehyde]
[7]
  oxidation by purified SADH: lower rate

## O=Cc1ccccc1 [benzaldehyde]
[7]
  oxidation by purified SADH: not oxidized

## CCCCO [butan-1-ol]
[1]
  oxidation by the purified yeast secondary alcohol dehydrogenase: not oxidized

## CCC(O)CO (stereo not drawn) [butane 1,2-diol]
[7]
  oxidation by purified SADH: not oxidized
[1]
  oxidation by the purified yeast secondary alcohol dehydrogenase: not oxidized

## CC(O)CCO (stereo not drawn) [butane 1,3-diol]
[7]
  oxidation by purified SADH: lower rate
[1]
  oxidation by the purified yeast secondary alcohol dehydrogenase: not oxidized

## CC(O)C(C)O (stereo not drawn) [butane 2,3-diol]
[7]
  oxidation by purified SADH: lower rate

## [Cu+2] [cupric]
[3]; [8]
  % inhibition of SADH activity: 25%

## OC1CCCCC1 [cyclohexanol]
[7]
  oxidation by purified SADH: lower rate

## O=C1C(Cl)=CC(=Nc2ccc(O)cc2)C=C1Cl [dichlorophenol indophenol, 2,6-dichlorophenol indophenol, reference compound]
[1]
  ability to act as electron acceptor/carrier for the purified enzyme: could not act as electron carrier
cell-free SADH system
  effectiveness as cofactor for oxidation of 2-butanol / C3-C6 secondary alcohols: not effective

## CCO [ethanol]
[1]
  oxidation by the purified yeast secondary alcohol dehydrogenase: not oxidized
[3]
  inhibition of SADH activity: did not inhibit

## [Fe+3] [ferric]
[3]; [8]
  % inhibition of SADH activity: 35%

## [Fe+2] [ferrous]
[3]; [8]
  % inhibition of SADH activity: 50%

## C=O [formaldehyde]
[7]
  oxidation by purified SADH: not oxidized

## O=C(O)CI [iodoacetic acid]
[3]
  % inhibition of SADH activity: 0%
  inhibition of SADH activity: not inhibited

## CC(C)CO [isobutanol]
[7]
  oxidation by purified SADH: not oxidized

## CO [methanol]
[1]
  oxidation by the purified yeast secondary alcohol dehydrogenase: not oxidized

## CCCO [n-propanol]
[1]
  oxidation by the purified yeast secondary alcohol dehydrogenase: not oxidized
[3]
  inhibition of SADH activity: did not inhibit

## [Ni+2] [nickel]
[3]; [8]
  % inhibition of SADH activity: 20%

## CCCCCO [pentan-1-ol]
[1]
  oxidation by the purified yeast secondary alcohol dehydrogenase: not oxidized

## C[n+]1c2ccccc2nc2ccccc21 [phenazine methosulfate, reference compound]
[1]
  ability to act as electron acceptor/carrier for the purified enzyme: could not act as electron carrier
cell-free SADH system
  effectiveness as cofactor for oxidation of 2-butanol / C3-C6 secondary alcohols: not effective

## Oc1ccccc1 [phenol]
[7]
  oxidation by purified SADH: not oxidized

## C=CC [propylene]
[4]
  inhibition of conversion of n-alkanes to sec. alcohols (words): inhibited
[4]; listed as Propylene
  inhibition of conversion of n-alkanes to sec. alcohols (words): inhibit

## CCC=O [ropanal]
[7]
  oxidation by purified SADH: lower rate
[7]; 2-butanol = 100%
  relative percent rate of oxidation by SADH: 2%

## O=C(O)CCC(=O)O [succinic acid]
[7]
  oxidation by purified SADH: not oxidized

## NNC(N)=S [thiosemicarbazide]
[4]
  inhibition of conversion of n-alkanes to sec. alcohols (words): inhibited

## c1ccc(-c2ccccn2)nc1 [α,α-bipyridyl]
[2]
  inhibition of production of 2-butanone from 2-butanol by cell suspensions: inhibited
[4]
  inhibition of conversion of n-alkanes to sec. alcohols (words): inhibited
[3]; [8]
  % inhibition of SADH activity: 70%

## cytochrome c [reference compound]
[1]
  ability to act as electron acceptor/carrier for the purified enzyme: could not act as electron carrier
